Values quoted from earlier work as cited in paper PMC12308805, “Ultrahigh-Throughput Virtual Screening Strategies against PPI Targets: A Case Study of STAT Inhibitors” (Journal of Chemical Information and Modeling, 2025).
Numbered stars: 1 amine (or outer) side, 2 acyl side, 3 side chain; on linkers, the order of the positions; unused ones are H or OH. Square brackets hold non-standard residues; d marks the D form. Peptide text beside a SMILES is read from it. * marks the point of attachment. Phe(4-tetrazol-5-yl) = N[C@@H](Cc1ccc(-c2nnn[nH]2)cc1)C(=O)O; X2 = O=C([C@H](Cc1ccc(Cc2nn[nH]n2)cc1)N[*:1])[*:2]; X5 = O=C([C@@H]1[C@@H]2C[C@@H]2CN1[*:1])[*:2]; d(pY) = N[C@H](Cc1ccc(OP(=O)(O)O)cc1)C(=O)O; pY = N[C@@H](Cc1ccc(OP(=O)(O)O)cc1)C(=O)O; NH(1R-phenylethyl) = C[C@@H](N*)c1ccccc1; NH(1S-phenylethyl) = C[C@H](N*)c1ccccc1; X4 = O=C(/C=C/c1ccc(OP(=O)(O)O)cc1)*; d(aThr) = C[C@@H](O)[C@@H](N)C(=O)O; Hydrocinnamoyl = O=C(CCc1ccccc1)*; Hyp = O=C(O)[C@@H]1C[C@@H](O)CN1; Cha = N[C@@H](CC1CCCCC1)C(=O)O; Nle = CCCC[C@H](N)C(=O)O; Cbz = O=C(OCc1ccccc1)*; NHBn = c1ccc(CN*)cc1; Propionyl = CCC(=O)*; Bz = O=C(c1ccccc1)*

System: STAT3
Details: cited from earlier work

SMILES	Type (known STAT3 active)
CC(=O)N[C@H](Cc1ccc(OP(=O)(O)O)cc1)C(=O)N[C@H](CC(C)C)C(=O)N1CCC[C@H]1C(=O)N[C@@H](CCC(N)=O)C(=O)N[C@@H](C)C(=O)N[C@H](C(N)=O)C(C)C [CHEMBL156407] (Ac-[d(pY)][dL]PQAV-NH2)	Active
CC(=O)N[C@@H](Cc1ccc(OP(=O)(O)O)cc1)C(=O)N[C@@H](CC(C)C)C(=O)N1CCC[C@H]1C(=O)N[C@H](CCC(N)=O)C(=O)N[C@@H](C(N)=O)[C@H](C)O [CHEMBL160353] (Ac-[pY]LP[dQ][dT]-NH2)	Active
CCC(=O)N[C@@H](Cc1ccc(OP(=O)(O)O)cc1)C(=O)N[C@@H](CC(C)C)C(=O)N1CCC[C@H]1C(=O)N[C@@H](CCC(N)=O)C(=O)N[C@H](C(N)=O)[C@@H](C)O [CHEMBL197580] (Propionyl-[pY]LPQT-NH2)	Active
CC(C)C[C@H](NC(=O)/C=C/c1ccc(OP(=O)(O)O)cc1)C(=O)N1CCC[C@H]1C(=O)N[C@H](C(=O)NCc1ccccc1)[C@@H](C)OC(N)=O [CHEMBL376795]	Active
CC(=O)N[C@@H](Cc1ccc(OP(=O)(O)O)cc1)C(=O)N[C@@H](CC(C)C)C(=O)N1CCC[C@H]1C(=O)N[C@@H](CCC(N)=O)C(=O)N[C@H](C(N)=O)[C@@H](C)O [CHEMBL382978] (Ac-[pY]LPQT-NH2)	Active
CC(C)C[C@H](NC(=O)[C@H](Cc1ccc(OP(=O)(O)O)cc1)NC(=O)OCc1ccccc1)C(=O)N1CCC[C@H]1C(=O)N[C@@H](CCC(N)=O)C(=O)N[C@H](C(N)=O)[C@@H](C)O [CHEMBL435121] (Cbz-[pY]LPQT-NH2)	Active
CC(=O)N[C@@H](Cc1ccc(OP(=O)(O)O)cc1)C(=O)N[C@@H](CC(C)C)C(=O)N1C[C@H]2C[C@H]2[C@H]1C(=O)N[C@@H](CCC(N)=O)C(=O)N[C@H](C(N)=O)[C@@H](C)O [CHEMBL436319] (Ac-[pY]L[X5]QT-NH2)	Active

Same assay, conditions: sheet 6QHD_actives_decoys; known STAT3 actives of the retrospective screening set; ref ChEMBL / literature; cited from earlier work

SMILES	Type (known STAT3 active)
CC(=O)N[C@@H](Cc1ccc(OP(=O)(O)O)cc1)C(=O)N[C@@H](CC(C)C)C(=O)N1CCC[C@@H]1C(=O)N[C@H](CCC(N)=O)C(=O)N[C@@H](C(=O)N[C@H](C)C(=O)O)[C@@H](C)O [CHEMBL157727] (Ac-[pY]L[dP][dQ][d(aThr)][dA]-OH)	Active
CC(=O)N[C@@H](Cc1ccc(OP(=O)(O)O)cc1)C(=O)N[C@@H](CC(C)C)C(=O)N1CCC[C@H]1C(=O)N[C@H](CCC(N)=O)C(N)=O [CHEMBL160658] (Ac-[pY]LP[dQ]-NH2)	Active
CSCC[C@H](NC(=O)[C@H](CCC(N)=O)NC(=O)[C@H]1CCCN1C(=O)[C@H](CCCCN)NC(=O)[C@H](Cc1ccc(OP(=O)(O)O)cc1)NC(C)=O)C(=O)N[C@@H](Cc1c[nH]cn1)C(N)=O [CHEMBL160733] (Ac-[pY]K[dP]QMH-NH2)	Active
CC(=O)N[C@@H](Cc1ccc(OP(=O)(O)O)cc1)C(=O)N[C@@H](CC(C)C)C(=O)N1CCC[C@H]1C(=O)N[C@@H](CCC(N)=O)C(=O)N[C@H](C)c1ccccc1 [CHEMBL193433] (Ac-[pY]LPQ-{NH(1R-phenylethyl)})	Active
CC(=O)N[C@@H](Cc1ccc(OP(=O)(O)O)cc1)C(=O)N[C@@H](CC(C)C)C(=O)N1CCC[C@H]1C(=O)N[C@@H](CCC(N)=O)C(N)=O [CHEMBL194516] (Ac-[pY]LPQ-NH2)	Active
CC(=O)N[C@@H](Cc1ccc(OP(=O)(O)O)cc1)C(=O)N[C@@H](CC(C)C)C(=O)N1CCC[C@H]1C(=O)N[C@@H](CCC(N)=O)C(=O)NCc1ccccc1 [CHEMBL194855] (Ac-[pY]LPQ-NHBn)	Active
CCCC[C@H](NC(=O)[C@H](Cc1ccc(OP(=O)(O)O)cc1)NC(C)=O)C(=O)N1CCC[C@H]1C(=O)N[C@@H](CCC(N)=O)C(=O)N[C@H](C(N)=O)[C@@H](C)O [CHEMBL197513] (Ac-[pY][Nle]PQT-NH2)	Active
CC(C)C[C@H](NC(=O)[C@H](Cc1ccc(OP(=O)(O)O)cc1)NC(=O)CCc1ccccc1)C(=O)N1CCC[C@H]1C(=O)N[C@@H](CCC(N)=O)C(=O)N[C@H](C(N)=O)[C@@H](C)O [CHEMBL197844] (Hydrocinnamoyl-[pY]LPQT-NH2)	Active
C1=Cc2nc1cc1ccc([nH]1)c(-c1ccccc1)c1nc(cc3ccc([nH]3)c2-c2ccccc2)C=C1 [CHEMBL207155]	Active
CC(=O)N[C@@H](Cc1ccc(OC(C(=O)O)C(=O)O)cc1)C(=O)N[C@@H](CC(C)C)C(=O)N1CCC[C@H]1C(=O)N[C@@H](CCC(N)=O)C(=O)N[C@H](C(=O)N[C@H](C(=O)O)C(C)C)[C@@H](C)O [CHEMBL231705]	Active
CC(=O)N[C@@H](Cc1ccc(Cc2nn[nH]n2)cc1)C(=O)N[C@@H](CC(C)C)C(=O)N1CCC[C@H]1C(=O)N[C@@H](CCC(N)=O)C(=O)N[C@H](C(=O)N[C@H](C(=O)O)C(C)C)[C@@H](C)O [CHEMBL233355] (Ac-[X2]LPQTV-OH)	Active
CC(C)C[C@H](NC(=O)/C=C/c1ccc(OP(=O)(O)O)cc1)C(=O)N1CCC[C@H]1C(=O)N[C@@H](CCC(N)=O)C(=O)NCc1ccccc1 [CHEMBL267246]	Active
CSCC[C@H](NC(=O)[C@H](C)NC(=O)[C@H](CCC(N)=O)NC(=O)[C@@H]1CCCN1C(=O)[C@@H](CCCN=C(N)N)NC(=O)[C@@H](Cc1ccc(OP(=O)(O)O)cc1)NC(C)=O)C(N)=O [CHEMBL345419] (Ac-[d(pY)][dR]PQAM-NH2)	Active
CNC(=O)[C@H](CCC(N)=O)NC(=O)[C@@H]1CCCN1C(=O)[C@H](CC(C)C)NC(=O)[C@H](Cc1ccc(OP(=O)(O)O)cc1)NC(C)=O [CHEMBL370095] (Ac-[pY]LPQ-NHMe)	Active
CC(=O)N[C@@H](Cc1ccc(OP(=O)(O)O)cc1)C(=O)N[C@@H](CC(C)C)C(=O)N1CCC[C@H]1C(=O)N[C@@H](CCC(N)=O)C(=O)N[C@@H](C)c1ccccc1 [CHEMBL370208] (Ac-[pY]LPQ-{NH(1S-phenylethyl)})	Active
CC(C)C[C@H](NC(=O)[C@H](Cc1ccc(OP(=O)(O)O)cc1)NC(=O)CCc1ccccc1)C(=O)N1C[C@H]2C[C@H]2[C@H]1C(=O)N[C@@H](CCC(N)=O)C(=O)NCc1ccccc1 [CHEMBL370763]	Active

SMILES	Type (known STAT3 active)
CC(=O)N[C@@H](Cc1ccc(OP(=O)(O)O)cc1)C(=O)N[C@@H](CC1CCCCC1)C(=O)N1CCC[C@H]1C(=O)N[C@@H](CCC(N)=O)C(=O)N[C@H](C(N)=O)[C@@H](C)O [CHEMBL371871] (Ac-[pY][Cha]PQT-NH2)	Active
CC(=O)N[C@@H](Cc1ccc(OP(=O)(O)O)cc1)C(=O)N[C@@H](CC(C)C)C(=O)N1C[C@H](O)C[C@H]1C(=O)N[C@@H](CCC(N)=O)C(=O)N[C@H](C(N)=O)[C@@H](C)O [CHEMBL372429] (Ac-[pY]L[Hyp]QT-NH2)	Active
CC(=O)N[C@@H](Cc1ccc(OP(=O)(O)O)cc1)C(=O)N[C@@H](CC(C)C)C(=O)N1CCC[C@H]1C(=O)N[C@@H](CCC(N)=O)C(=O)O [CHEMBL382544] (Ac-[pY]LPQ-OH)	Active
CC(C)C[C@H](NC(=O)/C=C/c1ccc(OP(=O)(O)O)cc1)C(=O)N1CCC[C@H]1C(=O)N[C@@H](COC(N)=O)C(=O)NCc1ccccc1 [CHEMBL414034]	Active
CC(=O)N[C@@H](Cc1ccc(OCC(=O)O)cc1)C(=O)N[C@@H](CC(C)C)C(=O)N1CCC[C@H]1C(=O)N[C@@H](CCC(N)=O)C(=O)N[C@H](C(=O)N[C@H](C(=O)O)C(C)C)[C@@H](C)O [CHEMBL414897]	Active
CC(C)C[C@H](NC(=O)[C@H](Cc1ccc(OP(=O)(O)O)cc1)NC(=O)c1ccccc1)C(=O)N1CCC[C@H]1C(=O)N[C@@H](CCC(N)=O)C(=O)N[C@H](C(N)=O)[C@@H](C)O [CHEMBL425571] (Bz-[pY]LPQT-NH2)	Active
CC(=O)N[C@@H](Cc1ccc(-c2nn[nH]n2)cc1)C(=O)N[C@@H](CC(C)C)C(=O)N1CCC[C@H]1C(=O)N[C@@H](CCC(N)=O)C(=O)N[C@H](C(=O)N[C@H](C(=O)O)C(C)C)[C@@H](C)O [CHEMBL439390] (Ac-[Phe(4-tetrazol-5-yl)]LPQTV-OH)	Active
NC(=O)CC[C@H](NC(=O)[C@@H]1CC[C@@H]2CC[C@H](NC(=O)/C=C/c3ccc(OP(=O)(O)O)cc3)C(=O)N21)C(=O)NCc1ccccc1 [CHEMBL445970]	Active
CC(C)NC(=O)[C@H](CCC(N)=O)NC(=O)[C@@H]1Cc2cccc3c2N1C(=O)[C@@H](NC(=O)/C=C/c1ccc(OP(=O)(O)O)cc1)CC3 [CHEMBL447460]	Active
NC(=O)CC[C@H](NC(=O)[C@@H]1Cc2cccc3c2N1C(=O)[C@@H](NC(=O)/C=C/c1ccc(OP(=O)(O)O)cc1)CC3)C(N)=O [CHEMBL449511]	Active
NC(=O)CC[C@H](NC(=O)[C@@H]1Cc2cccc3c2N1C(=O)[C@@H](NC(=O)/C=C/c1ccc(OP(=O)(O)O)cc1)CC3)C(=O)NCc1ccccc1 [CHEMBL449547]	Active
NC(=O)CC[C@H](NC(=O)[C@@H]1Cc2cccc3c2N1C(=O)[C@@H](NC(=O)c1cc2cc(OP(=O)(O)O)ccc2[nH]1)CC3)C(=O)NCc1ccccc1 [CHEMBL452194]	Active
CNC(=O)[C@H](CCC(N)=O)NC(=O)[C@@H]1Cc2cccc3c2N1C(=O)[C@@H](NC(=O)/C=C/c1ccc(OP(=O)(O)O)cc1)CC3 [CHEMBL454365]	Active
CC(C)C[C@H](NC(=O)/C=C/c1ccc(OP(=O)(O)O)cc1)C(=O)N1CCC[C@H]1C(=O)N[C@@H](CCC(N)=O)C(=O)N[C@H](C(N)=O)[C@@H](C)O [CHEMBL470227] (X4-LPQT-NH2)	Active
O=C(O)CCCNC(=O)[C@@H]1Cc2cccc3c2N1C(=O)[C@@H](NC(=O)/C=C/c1ccc(OP(=O)(O)O)cc1)CC3 [CHEMBL475488]	Active
